Where a chain is given by its changes, count along the chain named.
Columns and labels:
[1] = target: T1, Islet amyloid polypeptide (IAPP, or amylin), wild-type (Homo sapiens, UniProt P10997); assay: ThT fluorescence amyloid assembly assay; format: biochemical; details: 10 μM IAPP, 50 μM compound, 160 mM ammonium acetate pH 7.4, 1% v/v DMSO, 30 °C, quiescent; mainly inhibits primary nucleation
T1 construct: SEC-purified monomer; N-terminally biotinylated at Lys1 (PEG4) for SPR only; cut from pro-islet amyloid polypeptide
T1 sequence (P10997 34-70): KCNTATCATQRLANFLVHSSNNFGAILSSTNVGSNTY

[2] = target: T1, Islet amyloid polypeptide (IAPP, or amylin), wild-type; assay: SPR, biotinylated IAPP on streptavidin chip; format: binding
[3] = target: T2, Islet amyloid polypeptide (IAPP, or amylin), wild-type (Homo sapiens, UniProt P10997, S53G); assay: ThT fluorescence amyloid assembly assay; format: biochemical; details: 160 mM ammonium acetate pH 7.4, 1% v/v DMSO, 30 °C; inhibition of amyloid formation
T2 construct: SEC-purified monomer; N-terminally biotinylated at Lys1 (PEG4) for SPR only; cut from pro-islet amyloid polypeptide
T2 sequence (P10997 34-70 S53G): T1 sequence (P10997 34-70) with S20G

[4] = target: T1, Islet amyloid polypeptide (IAPP, or amylin), wild-type; assay: T1ρ and WaterLOGSY ligand-observed NMR; format: binding; details: IAPP monomer; 20 μM IAPP, 100 μM compound, 25 mM sodium phosphate pH 6.8, 1% v/v DMSO-d6, 5 °C

Row | fold-change in half-time of amyloid formation at 50 μM [1] | Kd [2] | Structure (SMILES) | ThT fluorescence amyloid assembly assay [3] | ligand binding (observed by NMR) [4]
1 | 1.61 ± 0.29 fold | – | COc1cc2nc(N3CCN(C(=O)C4COc5ccccc5O4)CC3)nc(N)c2cc1OC (centres unmarked) [doxazosin] | – | –
2 | 1.55 ± 0.22 fold | > 150 µM | Cc1ccc([C@@H]2O[C@H](CO)[C@@H](O)[C@H](O)[C@H]2O)cc1Cc1ccc(-c2ccc(F)cc2)s1 [canagliflozin] | only canagliflozin was able to inhibit amyloid formation by the familial S20G variant of IAPP | further evidence that canagliflozin binds IAPP monomers with strong changes in all protons

Source: PMC11987024, “Kinetic Steering of Amyloid Formation and Polymorphism by Canagliflozin, a Type-2 Diabetes Drug” (Journal of the American Chemical Society, 2025)
